From article PMC8198714, “New Coumarin Derivatives as Cholinergic and Cannabinoid System Modulators” (Molecules, 2021)
Like-named read-outs stand apart in the source and are kept apart here.

Assays:
[1] = target: T1, human recombinant AChE (hAChE) (Homo sapiens, UniProt P22303); experiment: Inhibition of human AChE, Ellman's method; format: biochemical; conditions: for inhibition at 40 µM: [I] = 40 µM, read-out: hAChE % Inhibition (±SEM); for IC50: human recombinant AChE
T1 construct: purchased Sigma-Aldrich, Merck group, Milan, Italy
Procedure: (§1) The capacity of 2–7 to inhibit human ChE activity was assessed using the Ellman’s method. Initial rate assays were performed at 37 °C with a V-530 double beam spectrophotometer (Jasco Corporation, Cremella (LC), Italy city, state/prov abbrev if USA/Canada, country). […] AChE stock solution was prepared by dissolving human recombinant AChE lyophilized powder (Sigma-Aldrich, Merck group, Milan, Italy) in 0.1 M phosphate buffer at pH 8.0 containing 0.1% Triton X-100. Stock solution of BuChE was prepared by diluting commercial stock solution of BuChE from human serum (Sigma) in an aqueous solution of gelatin (0.2%) in order to have a final activity comprised between 0.11–0.15 ΔAbs/min. Stock solutions of inhibitors (1–2 mM) were prepared in methanol and diluted in methanol. […] Incubation times were: 60 min for 2 and 90 min for 3 and 4 on hAChE assay, and 45 min for 2 and 60 min for 3 and 4 on hBuChE assay, as assessed on the preliminary determination of the carbamoylation rate. Blank solutions containing all components except the enzyme were prepared in order to account for the non-enzymatic hydrolysis of the substrate. The reaction rates obtained in the absence and presence of inhibitor were compared and the percent inhibition due to the presence of inhibitor was calculated. […] Two independent experiments were performed for the determination of each IC50 value or for the calculation of the % of inhibition where the IC50 value could not be determined because of low inhibitory activity.

[2] = target: T2, BuChE from human serum (hBuChE) (Homo sapiens, UniProt P06276); experiment: Inhibition of human BuChE, Ellman's method; format: biochemical; conditions: for IC50: BuChE from human serum
T2 construct: commercial stock solution of BuChE from human serum (Sigma); purchased Sigma; host or cells: human serum
Procedure: as §1

[3] = target: T3, human recombinant CB1 receptor (Homo sapiens, UniProt P21554); experiment: Competition binding assay with [3H]-CP-55,940 at CB1; conditions: for Ki: [3H]-CP55940 displacement, HEK-293 membranes, read-out: Ki on CB1 (m ± sd); for % Displacement at max tested on CB1 (m ± sd): max tested concentration 10 µM, [3H]-CP55940
T3 construct: purchased Perkin Elmer, Milan, Italy; host or cells: HEK-293
Procedure: (§2) Competition binding assay for CB1 and CB2 receptors was performed as previously reported. […] All compounds were tested following the procedure described by the manufacturer (Perkin Elmer, Milan, Italy).

[4] = target: T4, human recombinant CB2 receptor (Homo sapiens, UniProt P34972); experiment: Competition binding assay with [3H]-CP-55,940 at CB2; conditions: for Ki: [3H]-CP55940 displacement, HEK-293 membranes, read-out: Ki on CB2 (m ± sd); for % Displacement at max tested on CB2 (m ± sd): max tested concentration 10 µM, [3H]-CP55940
T4 construct: purchased Perkin Elmer, Milan, Italy; host or cells: HEK-293
Procedure: as §2

[5] = target: T5, FAAH in rat brain membranes (Rattus norvegicus, UniProt P97612); experiment: FAAH assay, [14C]-AEA hydrolysis in rat brain membranes
T5 sequence (P97612 1-579): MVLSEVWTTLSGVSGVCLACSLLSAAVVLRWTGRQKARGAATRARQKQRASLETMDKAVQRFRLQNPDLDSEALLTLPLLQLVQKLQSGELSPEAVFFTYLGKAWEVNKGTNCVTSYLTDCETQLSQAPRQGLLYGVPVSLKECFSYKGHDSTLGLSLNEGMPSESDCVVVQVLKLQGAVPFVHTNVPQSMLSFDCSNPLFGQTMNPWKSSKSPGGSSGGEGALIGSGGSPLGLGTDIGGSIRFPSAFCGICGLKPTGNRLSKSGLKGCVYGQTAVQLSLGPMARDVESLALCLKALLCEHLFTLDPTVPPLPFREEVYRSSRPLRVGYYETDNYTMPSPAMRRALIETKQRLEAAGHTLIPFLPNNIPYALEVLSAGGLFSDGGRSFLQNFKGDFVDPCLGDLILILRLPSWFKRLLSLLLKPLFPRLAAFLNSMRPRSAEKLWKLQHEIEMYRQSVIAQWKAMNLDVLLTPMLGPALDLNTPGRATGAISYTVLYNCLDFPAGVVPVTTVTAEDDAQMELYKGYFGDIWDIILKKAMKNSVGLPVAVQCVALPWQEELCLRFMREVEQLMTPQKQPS

Aβ42 self-aggregation = target: T6, Aβ42 self-aggregation (Homo sapiens, UniProt P05067); experiment: Inhibition of Aβ42 self-aggregation, thioflavin T fluorescence; format: biochemical; conditions: read-out: % Inhibition Aβ42 self-aggregation (±SEM)
T6 construct: pretreated Aβ42 samples (Bachem AG, Bubendorf, Switzerland); purchased Bachem AG, Bubendorf, Switzerland
Procedure: Finally, in a multitarget perspective, the compounds were tested to evaluate their Aβ anti-aggregation properties.
As reported in a previously published protocol, 1,1,1,3,3,3-hexafluoro, 2-propanol pretreated Aβ42 samples (Bachem AG, Bubendorf, Switzerland) were solubilized with a CH3CN/0.3 mM Na2CO3/250 mM NaOH (48.4:48.4:3.2) mixture. Experiments were performed by incubating the peptide in 10 mM phosphate buffer (pH = 8.0) containing 10 mM NaCl, at 30 °C for 24 h (final Aβ concentration = 50 μM) with and without inhibitor (50 μM, Aβ/inhibitor = 1/1). Blanks containing the tested inhibitors were also prepared and tested. To quantify amyloid fibrils formation, the thioflavin T (ThT) fluorescence method was used. After incubation, samples were diluted to a final volume of 2.0 mL with 50 mM glycine-NaOH buffer (pH 8.5) containing 1.5 μM ThT. A 300 s-time scan of fluorescence intensity was carried out (λexc = 446 nm; λem = 490 nm, FP-6200 fluorometer, Jasco Europe), and values at plateau were averaged after subtracting the background fluorescence of 1.5 μM ThT solution. The fluorescence intensities were compared and the percent inhibition due to the presence of the inhibitor.

[6] = target: T5, FAAH in rat brain membranes; conditions: read-out: IC50 FAAH with 20 min Pre-incubation; cited from earlier work
hAChE = target: T7, hAChE (Homo sapiens, UniProt P22303); experiment: Stopped time assay of hAChE carbamoylation; format: biochemical; conditions: determined at IC50 value
T7 construct: purchased Sigma-Aldrich, Merck group, Milan, Italy
Procedure: Given these premises, we initially investigated the time-dependent ChEs inhibition by 2–4 by evaluating the time required to achieve a plateau in the inhibition plot.
A stopped time assay was performed in order to define the time required for enzyme carbamoylation. In detail, residual enzyme activity upon selected incubation times was assessed by following the same protocol described in section “Determination of the inhibitory potency towards human AChE and BuChE”. […] The mixture was incubated at 37 °C for given times (from 5 to 90 min) before the addition of the substrate (AChT or BChT, respectively) and the determination of residual enzyme activity by Ellman’s method. A parallel control, with no inhibitor, allowed to adjust activities measured at various time.

[7] = incubation 20 min, read-out: hBuChE IC50 (±SEM)
[8] = IC50 FAAH (m ± sd), rat brain membranes, AEA hydrolysis, without pre-incubation
[9] = IC50 FAAH with 20 min Pre-incubation, rat brain membranes, 20 min pre-incubation at 37 °C
[10] = incubation time 60 min, read-out: IC50 hBuChE (±SEM)

T4 sequence (P34972 whole entry): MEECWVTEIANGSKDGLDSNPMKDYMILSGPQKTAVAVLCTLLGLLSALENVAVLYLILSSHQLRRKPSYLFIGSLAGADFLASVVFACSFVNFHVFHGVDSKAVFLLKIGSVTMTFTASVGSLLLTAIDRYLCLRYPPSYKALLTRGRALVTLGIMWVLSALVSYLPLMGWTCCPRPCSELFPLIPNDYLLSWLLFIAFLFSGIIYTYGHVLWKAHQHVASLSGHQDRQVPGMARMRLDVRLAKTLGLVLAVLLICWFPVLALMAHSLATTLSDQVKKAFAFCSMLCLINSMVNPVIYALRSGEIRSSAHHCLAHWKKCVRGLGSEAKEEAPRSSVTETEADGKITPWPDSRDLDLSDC
T3 sequence (P21554 whole entry): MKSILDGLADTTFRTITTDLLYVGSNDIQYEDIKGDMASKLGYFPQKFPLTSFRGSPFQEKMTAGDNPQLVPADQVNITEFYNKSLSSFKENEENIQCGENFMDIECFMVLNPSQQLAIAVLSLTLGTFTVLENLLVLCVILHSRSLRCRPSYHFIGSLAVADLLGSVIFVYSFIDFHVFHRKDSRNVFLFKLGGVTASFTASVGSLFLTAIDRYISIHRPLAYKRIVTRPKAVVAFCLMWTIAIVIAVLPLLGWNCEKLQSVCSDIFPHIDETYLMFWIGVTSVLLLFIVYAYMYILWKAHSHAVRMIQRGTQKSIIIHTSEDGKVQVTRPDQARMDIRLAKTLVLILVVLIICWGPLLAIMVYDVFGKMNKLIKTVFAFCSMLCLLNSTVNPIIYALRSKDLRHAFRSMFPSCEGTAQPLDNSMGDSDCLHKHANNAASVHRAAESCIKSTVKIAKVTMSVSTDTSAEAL
T1 sequence (P22303 32-614): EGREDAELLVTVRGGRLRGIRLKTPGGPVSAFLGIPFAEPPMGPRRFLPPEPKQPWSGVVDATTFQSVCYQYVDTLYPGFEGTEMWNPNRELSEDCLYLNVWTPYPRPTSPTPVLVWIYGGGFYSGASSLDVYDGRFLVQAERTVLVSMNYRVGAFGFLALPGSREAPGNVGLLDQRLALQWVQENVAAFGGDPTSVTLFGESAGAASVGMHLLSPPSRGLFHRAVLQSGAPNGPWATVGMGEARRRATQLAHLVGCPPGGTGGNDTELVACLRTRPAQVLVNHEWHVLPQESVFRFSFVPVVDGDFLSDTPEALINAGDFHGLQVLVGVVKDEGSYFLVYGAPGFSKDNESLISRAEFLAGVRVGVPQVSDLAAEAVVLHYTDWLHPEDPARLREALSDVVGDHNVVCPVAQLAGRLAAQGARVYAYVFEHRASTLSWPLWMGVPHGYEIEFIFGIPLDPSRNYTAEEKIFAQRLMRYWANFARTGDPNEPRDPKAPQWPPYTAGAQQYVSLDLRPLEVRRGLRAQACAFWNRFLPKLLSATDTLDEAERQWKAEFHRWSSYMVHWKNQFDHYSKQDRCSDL
T6 sequence (P05067 672-713 limits assumed): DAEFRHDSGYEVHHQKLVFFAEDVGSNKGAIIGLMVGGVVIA
T2 sequence (P06276 29-602): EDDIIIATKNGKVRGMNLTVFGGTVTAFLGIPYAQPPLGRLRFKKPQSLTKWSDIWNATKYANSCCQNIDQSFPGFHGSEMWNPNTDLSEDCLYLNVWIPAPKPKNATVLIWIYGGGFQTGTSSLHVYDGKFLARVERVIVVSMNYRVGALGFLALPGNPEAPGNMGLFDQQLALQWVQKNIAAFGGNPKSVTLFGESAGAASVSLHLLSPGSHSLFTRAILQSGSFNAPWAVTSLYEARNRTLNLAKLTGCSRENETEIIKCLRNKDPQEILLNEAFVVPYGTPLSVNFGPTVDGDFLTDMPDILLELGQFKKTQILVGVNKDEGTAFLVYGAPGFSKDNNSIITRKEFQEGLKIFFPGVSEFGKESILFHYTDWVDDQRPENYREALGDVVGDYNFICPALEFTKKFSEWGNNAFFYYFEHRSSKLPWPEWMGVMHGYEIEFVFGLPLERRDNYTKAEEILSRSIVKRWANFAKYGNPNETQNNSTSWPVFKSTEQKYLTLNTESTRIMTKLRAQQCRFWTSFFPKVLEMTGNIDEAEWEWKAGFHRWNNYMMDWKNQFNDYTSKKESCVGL
T7 sequence (P22303 32-614): as the sequence (P22303 32-614) above

SMILES	inhibition at 40 µM ([1]; incubation 20 min) [%]	IC50 [2, 7] [µM]	Ki [3] [µM]	% Displacement at max tested on CB1 (m ± sd) [3]	Ki [4] [µM]	% Displacement at max tested on CB2 (m ± sd) [4]	IC50 [5] [µM]	inhibition at 50 µM (Aβ42 self-aggregation) [%]	IC50 [5, 8] [µM]	IC50 [5, 9] [µM]	other results
CCCCCCCNC(=O)COc1cccc(CN(C)CCCOc2ccc3ccc(=O)oc3c2)c1 [Compound 5, N-Heptyl-2-(3-((methyl(3-((2-oxo-2H-chromen-7-yl)oxy)propyl)amino)methyl)phenoxy)acetamide]	13.6 ± 5.1	182 ± 28	> 10	10 (35.57 ± 0.43) %	> 10	10 (41.41 ± 0.87) %	> 1000				
CN(CCCOc1ccc2ccc(=O)oc2c1)Cc1cccc(OCC(=O)NC2CCCCC2)c1 [Compound 7, N-Cyclohexyl-2-(3-((methyl(3-((2-oxo-2H-chromen-7-yl)oxy)propyl)amino)methyl)phenoxy)-acetamide]	34 ± 3.2	12.8 ± 2.1	> 10	10 (39.62 ± 10.48) %	> 10	10 (14.3 ±3.83) %	> 1000	13.5 ± 5			
CCCCCCCNC(=O)Oc1cccc(CN(C)CCCOc2ccc3ccc(=O)oc3c2)c1 [Compound 1]											IC50 [6]: 0.029 ± 0.001 µM
CN(CCCOc1ccc2ccc(=O)oc2c1)Cc1cccc(OC(=O)NC2CCCC2)c1 [Compound 2, 3-((Methyl(3-((2-oxo-2H-chromen-7-yl)oxy)propyl)amino)methyl)phenyl cyclopentylcarbamate]								22.9 ± 1.3	6.09 ± 1.55	2.53 ± 0.55	IC50 ([1]; incubation time 60 min, read-out: IC50 hAChE (±SEM)): 0.521 ± 0.014 µM; IC50 ([2]; incubation time 45 min, read-out: IC50 hBuChE (±SEM)): 0.00842 ± 0.00013 µM; pseudo-first order kobs of hAChE carbamoylation (hAChE): 0.038 min⁻¹
CN(CCCOc1ccc2ccc(=O)oc2c1)Cc1cccc(OC(=O)NC2CCCCC2)c1 [Compound 3, 3-((Methyl(3-((2-oxo-2H-chromen-7-yl)oxy)propyl)amino)methyl)phenyl cyclohexylcarbamate]								18.9 ± 2.1	2.55 ± 0.33	1.33 ± 0.28	IC50 ([1]; incubation time 90 min, read-out: IC50 hAChE (±SEM)): 0.104 ± 0.021 µM; IC50 [2, 10]: 0.0349 ± 0.0042 µM
CN(CCCOc1ccc2ccc(=O)oc2c1)Cc1cccc(OC(=O)Nc2ccc3ccccc3c2)c1 [Compound 4, 3-((Methyl(3-((2-oxo-2H-chromen-7-yl)oxy)propyl)amino)methyl)phenyl naphthalen-2-ylcarbamate]								13.9 ± 3.8	1.58 ± 0.26	0.63 ± 0.08	IC50 [2, 10]: 0.002 ± 0.0002 µM; difference in IC50 values hAChE vs hBuChE (selectivity) ([2]; hBuChE over hAChE): 100 fold
CN(CCCOc1ccc2ccc(=O)oc2c1)Cc1cccc(OCC(=O)NC2CCCC2)c1 [Compound 6, N-Cyclopentyl-2-(3-((methyl(3-((2-oxo-2H-chromen-7yl)oxy)propyl)amino)methyl)phenoxy)-acetamide]	41.7 ± 0.5	11.6 ± 0.8	> 10	10 (35.75 ± 0.65) %	> 10	10 (48.33 ± 1.73) %	> 1000	20.3 ± 1.9			IC50 ([1]; incubation 20 min, read-out: IC50 hAChE): 59.4 µM
